Assay: mn = molality of the nth substance listed, in mol/kg
Conditions: 303 K, Ring tensiometer

CCCCCCCCCCc1ccc(C(=O)[O-])cn1.[Na+] [sodium 6-decylnicotinate] + O
Conditions	surface tension liquid-gas [mN/m]
m1 = 1e-05	65
m1 = 1.479e-05	63.7
m1 = 2.512e-05	62.02
m1 = 4.074e-05	59.6
m1 = 5.495e-05	58.45
m1 = 7.586e-05	56.75
m1 = 0.0001	55.75
m1 = 0.000123	54.56
m1 = 0.0001514	53.1
m1 = 0.000182	51.77
m1 = 0.0002042	50.5
m1 = 0.0002512	49.5
m1 = 0.000302	48.5
m1 = 0.0003548	47
m1 = 0.0004074	47
m1 = 0.0005012	47
m1 = 0.0006166	47
m1 = 0.0008128	46.5
m1 = 0.001	46
m1 = 0.001514	45.6
m1 = 0.002042	45
m1 = 0.002291	44.5
m1 = 0.002512	44
m1 = 0.002754	43.5
m1 = 0.00302	42.5
m1 = 0.003311	42.5
m1 = 0.003548	42.5
m1 = 0.004074	42.5
m1 = 0.005012	42.5
m1 = 0.006026	42.5

CCCCCCCCCCc1ccc(C(=O)NCC(=O)[O-])cn1.[Na+] [sodium (6-decylnicotinoyl)glycinate] + O
Conditions	surface tension liquid-gas [mN/m]
m1 = 1.995e-05	64.7
m1 = 2.818e-05	61.8
m1 = 4.786e-05	59.4
m1 = 5.888e-05	58.1
m1 = 8.128e-05	56.6
m1 = 0.0001148	55.2
m1 = 0.0001514	53.2
m1 = 0.0002512	52.5
m1 = 0.000302	50
m1 = 0.0005012	47
m1 = 0.0008128	46
m1 = 0.001	45
m1 = 0.001514	44
m1 = 0.002042	43
m1 = 0.002291	42
m1 = 0.002512	40.5
m1 = 0.00302	40.5
m1 = 0.003548	40.5
m1 = 0.004074	40.5
m1 = 0.005012	40.5
m1 = 0.006026	40.5

CCCCCCCCc1ccc(C(=O)[O-])cn1.[Na+] [sodium 6-octylnicotinate] + O
Conditions	surface tension liquid-gas [mN/m]
m1 = 5e-05	69
m1 = 7.145e-05	68.3
m1 = 0.0001	67
m1 = 0.0001545	66
m1 = 0.0002512	64.9
m1 = 0.0003972	63.6
m1 = 0.0006397	61.8
m1 = 0.001	60
m1 = 0.0015	58.4
m1 = 0.002	57.4
m1 = 0.0025	57.4
m1 = 0.002999	57.4
m1 = 0.003999	57.4
m1 = 0.005	56
m1 = 0.006427	54.22
m1 = 0.009016	52.4
m1 = 0.01	49.5
m1 = 0.013	48
m1 = 0.015	47.5
m1 = 0.01702	45
m1 = 0.02	44
m1 = 0.025	44
m1 = 0.02999	44
m1 = 0.03499	44
